In ChEMBL document CHEMBL6074641, “Polypharmacological Drug Design Guided by Integrating Phenotypic and Restricted Fragment Docking Strategies” (J Med Chem, 2024):
Calls of active or inactive are those of the source. No cut-off for these calls is given here.

Key:
[1] = target: T1, Receptor-interacting serine/threonine-protein kinase 1 (Homo sapiens, UniProt Q13546); assay: (§1) Inhibition of recombinant RIPK1 (1 to 327 residues) (unknown origin) expressed in Escherichia coli BL21([…]) using MBP as substrate preincubated for 15 mins followed by substrate and ATP addition and measured after 90 mins by ADP-Glo luminescence […] assay
T1 sequence (Q13546 whole entry): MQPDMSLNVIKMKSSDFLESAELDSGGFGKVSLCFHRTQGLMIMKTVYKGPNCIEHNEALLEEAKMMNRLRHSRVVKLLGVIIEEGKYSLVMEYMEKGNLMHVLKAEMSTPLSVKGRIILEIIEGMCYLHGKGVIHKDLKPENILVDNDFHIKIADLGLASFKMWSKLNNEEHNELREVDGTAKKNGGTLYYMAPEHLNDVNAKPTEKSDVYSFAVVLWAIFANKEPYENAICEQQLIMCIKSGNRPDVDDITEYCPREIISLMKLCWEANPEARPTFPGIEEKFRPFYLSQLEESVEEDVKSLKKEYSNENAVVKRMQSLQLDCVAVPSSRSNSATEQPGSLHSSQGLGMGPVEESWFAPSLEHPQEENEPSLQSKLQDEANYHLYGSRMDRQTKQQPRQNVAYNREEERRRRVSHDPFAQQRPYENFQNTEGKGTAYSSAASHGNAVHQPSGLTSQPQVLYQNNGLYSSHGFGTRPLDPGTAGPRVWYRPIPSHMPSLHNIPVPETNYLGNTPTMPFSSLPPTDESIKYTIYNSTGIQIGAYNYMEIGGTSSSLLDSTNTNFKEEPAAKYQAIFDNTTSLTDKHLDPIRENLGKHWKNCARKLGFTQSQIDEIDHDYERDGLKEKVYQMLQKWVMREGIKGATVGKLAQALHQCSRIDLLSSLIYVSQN

[2] = target: Mitogen-activated protein kinase kinase kinase kinase 4 (Homo sapiens, UniProt O95819); assay: Inhibition of recombinant MAP4K4 (1 to 328 residues) (unknown origin) expressed in Escherichia coli BL21([…]) using MBP as substrate preincubated for 15 mins followed by substrate and ATP addition and measured after 90 mins by ADP-Glo luminescence […] assay
Sequence of Mitogen-activated protein kinase kinase kinase kinase 4 (O95819 whole entry, the tested form may be a part): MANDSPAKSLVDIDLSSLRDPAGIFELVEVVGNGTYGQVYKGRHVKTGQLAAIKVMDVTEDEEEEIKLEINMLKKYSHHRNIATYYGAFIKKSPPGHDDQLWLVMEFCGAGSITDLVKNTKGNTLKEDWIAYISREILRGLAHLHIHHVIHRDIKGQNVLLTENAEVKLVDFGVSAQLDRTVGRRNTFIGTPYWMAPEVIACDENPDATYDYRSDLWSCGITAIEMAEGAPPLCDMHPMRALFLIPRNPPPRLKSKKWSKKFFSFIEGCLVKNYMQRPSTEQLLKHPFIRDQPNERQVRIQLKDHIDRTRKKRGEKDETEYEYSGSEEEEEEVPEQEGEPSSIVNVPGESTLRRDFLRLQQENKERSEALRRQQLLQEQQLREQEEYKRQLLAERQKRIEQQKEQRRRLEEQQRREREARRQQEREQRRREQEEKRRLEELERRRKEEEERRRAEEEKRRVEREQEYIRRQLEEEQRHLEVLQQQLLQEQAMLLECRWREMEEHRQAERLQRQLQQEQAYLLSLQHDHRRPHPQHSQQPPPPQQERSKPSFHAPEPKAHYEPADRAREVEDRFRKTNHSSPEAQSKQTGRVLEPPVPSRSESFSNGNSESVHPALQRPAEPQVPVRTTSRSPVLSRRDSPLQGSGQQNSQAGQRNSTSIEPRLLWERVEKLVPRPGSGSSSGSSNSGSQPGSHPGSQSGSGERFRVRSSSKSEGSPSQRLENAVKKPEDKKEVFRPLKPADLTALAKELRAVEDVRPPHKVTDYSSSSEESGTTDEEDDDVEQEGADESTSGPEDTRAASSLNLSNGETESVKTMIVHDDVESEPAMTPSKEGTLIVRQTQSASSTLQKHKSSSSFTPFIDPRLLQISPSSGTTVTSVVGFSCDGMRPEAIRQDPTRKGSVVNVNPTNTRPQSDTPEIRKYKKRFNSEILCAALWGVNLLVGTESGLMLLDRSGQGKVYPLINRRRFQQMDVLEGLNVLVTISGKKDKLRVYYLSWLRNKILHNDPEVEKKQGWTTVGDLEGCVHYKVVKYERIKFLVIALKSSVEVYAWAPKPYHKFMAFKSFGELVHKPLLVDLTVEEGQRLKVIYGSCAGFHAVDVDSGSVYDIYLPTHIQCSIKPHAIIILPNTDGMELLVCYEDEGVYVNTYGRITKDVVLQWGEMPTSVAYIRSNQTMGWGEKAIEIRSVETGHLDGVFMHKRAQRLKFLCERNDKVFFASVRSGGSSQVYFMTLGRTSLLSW

[3] = target: ALK tyrosine kinase receptor (Homo sapiens, UniProt Q9UM73); assay: Inhibition of recombinant ALK (1060 to end residues) (unknown origin) expressed in Escherichia coli […] using IGF1Rtide as substrate preincubated for 15 mins followed by substrate and ATP addition and measured after 90 mins by ADP-Glo luminescence […] assay
Sequence of ALK tyrosine kinase receptor (Q9UM73 whole entry): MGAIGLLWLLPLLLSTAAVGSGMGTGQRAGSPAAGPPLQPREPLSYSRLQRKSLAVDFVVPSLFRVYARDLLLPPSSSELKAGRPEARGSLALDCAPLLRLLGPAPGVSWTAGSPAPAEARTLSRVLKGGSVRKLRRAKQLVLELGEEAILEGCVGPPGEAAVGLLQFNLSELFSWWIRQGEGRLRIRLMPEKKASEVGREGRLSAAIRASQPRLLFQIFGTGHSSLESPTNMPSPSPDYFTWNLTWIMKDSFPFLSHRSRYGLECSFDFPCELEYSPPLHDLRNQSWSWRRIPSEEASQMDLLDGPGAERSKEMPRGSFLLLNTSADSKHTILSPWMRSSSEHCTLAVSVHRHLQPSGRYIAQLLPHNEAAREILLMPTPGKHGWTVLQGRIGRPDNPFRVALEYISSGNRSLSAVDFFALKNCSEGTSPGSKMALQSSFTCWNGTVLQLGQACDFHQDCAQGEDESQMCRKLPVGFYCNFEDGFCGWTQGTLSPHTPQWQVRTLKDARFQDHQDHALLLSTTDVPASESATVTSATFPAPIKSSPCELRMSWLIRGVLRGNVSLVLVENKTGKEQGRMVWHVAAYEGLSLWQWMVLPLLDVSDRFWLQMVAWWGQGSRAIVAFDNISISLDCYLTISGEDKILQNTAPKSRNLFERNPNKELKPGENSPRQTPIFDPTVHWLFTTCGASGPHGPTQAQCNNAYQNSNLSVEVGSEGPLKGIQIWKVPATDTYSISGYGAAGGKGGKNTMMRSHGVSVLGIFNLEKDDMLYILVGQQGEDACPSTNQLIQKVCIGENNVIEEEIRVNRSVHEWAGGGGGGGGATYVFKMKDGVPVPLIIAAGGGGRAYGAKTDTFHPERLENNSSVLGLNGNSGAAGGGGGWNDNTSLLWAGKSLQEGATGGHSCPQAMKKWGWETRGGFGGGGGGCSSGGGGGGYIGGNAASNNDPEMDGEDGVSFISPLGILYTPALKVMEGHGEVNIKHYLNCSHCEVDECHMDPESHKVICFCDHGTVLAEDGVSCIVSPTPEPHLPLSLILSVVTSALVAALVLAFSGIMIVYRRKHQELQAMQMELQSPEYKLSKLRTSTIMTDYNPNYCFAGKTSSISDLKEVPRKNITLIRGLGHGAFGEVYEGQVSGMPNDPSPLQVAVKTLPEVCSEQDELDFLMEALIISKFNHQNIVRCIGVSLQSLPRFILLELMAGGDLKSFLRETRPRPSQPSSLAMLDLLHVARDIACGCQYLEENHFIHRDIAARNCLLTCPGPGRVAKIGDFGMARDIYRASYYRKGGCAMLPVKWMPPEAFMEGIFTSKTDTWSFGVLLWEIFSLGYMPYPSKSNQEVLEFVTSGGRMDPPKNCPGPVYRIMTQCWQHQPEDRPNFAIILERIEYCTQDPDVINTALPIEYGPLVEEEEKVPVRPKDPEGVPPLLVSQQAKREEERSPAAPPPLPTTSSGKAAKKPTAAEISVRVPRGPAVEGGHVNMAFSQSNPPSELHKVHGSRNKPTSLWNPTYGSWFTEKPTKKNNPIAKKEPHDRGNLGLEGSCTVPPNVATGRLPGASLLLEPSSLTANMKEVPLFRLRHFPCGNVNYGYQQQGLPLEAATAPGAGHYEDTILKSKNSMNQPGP

BV-2 [4] = assay: cells; conditions: Mus musculus
Mus musculus [5] = assay: Anti-alzheimer activity against 5 month old APP/PS1 transgenic mouse model assessed as decrease in anxiety level at 10 mg/kg, po administered 4 times per week for 4 weeks; format: functional, organism-based
Mus musculus [6] = assay: Anti-alzheimer activity against 5 month old APP/PS1 transgenic mouse model assessed as decrease in restlessness at 10 mg/kg, po administered 4 times per week for 4 weeks; format: functional, organism-based
Mus musculus [7] = assay: Anti-alzheimer activity against 8 month old 3xTg mouse model assessed as decrease in anxiety level at 10 mg/kg, po administered 4 times per week for 4 weeks; format: functional, organism-based
Mus musculus [8] = assay: Anti-alzheimer activity against 8 month old 3xTg mouse model assessed as decrease in restlessness at 10 mg/kg, po administered 4 times per week for 4 weeks; format: functional, organism-based
BV-2 [9] = assay: (§2) Synergistic anti-necroptosis activity in LPS/zVAD stimulated mouse BV-2 cells preincubated with LPS for 11 hrs followed by compound addition for 1 hr and exposed to zVAD-fmk for another 24 hrs in presence of crizotinib by Cellcounting-Lite 2.0 luminescent cell viability assay; format: functional, cell-based; conditions: time 25.0 hrs
BV-2 [10] = assay: as §2, with “cells at 100 nM” for “cells”, “of PF-06260933 and” for “of”; format: functional, cell-based; conditions: time 25.0 hrs
BV-2 [11] = assay: as §2, with “cells at 100 nM” for “cells”, “PF-06260933 and entrectinib” for “crizotinib”; format: functional, cell-based; conditions: time 25.0 hrs
BV-2 [12] = assay: Synergistic anti-necroptosis activity in LPS/zVAD stimulated mouse BV-2 cells at 100 nM preincubated with LPS for 11 hrs followed by compound addition for 1 hr and exposed to zVAD-fmk for another 24 hrs in presence of PF-06260933 and TAE684 by Cellcounting-Lite 2.0 luminescent cell viability assay; format: functional, cell-based; conditions: time 25.0 hrs
BV-2 [13] = assay: Synergistic anti-necroptosis activity in LPS/zVAD stimulated mouse BV-2 cells at 100 nM preincubated with LPS for 11 hrs followed by compound addition for 1 hr and exposed to zVAD-fmk for another 24 hrs in presence of PF-06260933 and LDK378 by Cellcounting-Lite 2.0 luminescent cell viability assay; format: functional, cell-based; conditions: time 25.0 hrs
BV-2 [14] = assay: Downregulation of p-RIPK1 expression in mouse BV-2 cells at 100 nM in presence of PF-06260933 and crizotinib by Western blotting analysis; format: functional, cell-based
BV-2 [15] = assay: Downregulation of p-MLKL expression in mouse BV-2 cells at 100 nM in presence of PF-06260933 and crizotinib by Western blotting analysis; format: functional, cell-based
BV-2 [16] = assay: Anti-necroptosis activity in LPS/zVAD stimulated mouse BV-2 cells assessed as inhibition of extranuclear p65 at 100 nM; format: functional, cell-based
BV-2 [17] = assay: Anti-necroptosis activity in LPS/zVAD stimulated mouse BV-2 cells assessed as inhibition of p65 nuclear translocation at 100 nM; format: functional, cell-based
BV-2 [18] = assay: Anti-necroptosis activity in LPS/zVAD stimulated mouse BV-2 cells assessed as inhibition of p65 activation at 100 nM in presence of PF-06260933 and crizotinib; format: functional; design: scale not given: the % may be the effect or the level left
BV-2 [19] = assay: Anti-necroptosis activity in LPS/zVAD stimulated mouse BV-2 cells assessed as inhibition of p65 nuclear translocation at 100 nM in presence of PF-06260933 and crizotinib; format: functional; design: scale not given: the % may be the effect or the level left
BV-2 [20] = assay: Anti-inflammatory activity against LPS/zVAD treated mouse BV-2 cells assessed as decrease in TNFalpha release at 100 nM in presence of PF-06260933 and crizotinib by ELISA; format: functional, cell-based
BV-2 [21] = assay: Anti-inflammatory activity against LPS/zVAD treated mouse BV-2 cells assessed as decrease in IL-1beta release at 100 nM in presence of PF-06260933 and crizotinib by ELISA; format: functional, cell-based
BV-2 [22] = assay: Cytotoxicity against mouse BV-2 cells; format: toxicity, cell-based
[23] = target: T2, Receptor-interacting serine/threonine-protein kinase 1 (Homo sapiens) (UniProt Q13546); assay: as §1; conditions: time 105.0 min
T2 sequence (whole entry): T1 sequence (Q13546 whole entry)

BV-2 [24] = assay: Anti-necroptosis activity in LPS/zVAD stimulated mouse BV-2 cells preincubated with LPS for 11 hrs followed by compound addition for 1 hr and exposed to zVAD-fmk for another 24 hrs by Cellcounting-Lite 2.0 luminescent cell viability assay; conditions: time 25.0 hrs
BV-2 [25] = assay: Anti-necroptosis activity in LPS/zVAD stimulated mouse BV-2 cells at 10 uM preincubated with LPS for 11 hrs followed by compound addition for 1 hr and exposed to zVAD-fmk for another 24 hrs by Cellcounting-Lite 2.0 luminescent cell viability assay; format: functional, cell-based; conditions: time 25.0 hrs
BV-2 [26] = assay: Synergistic anti-necroptosis activity in LPS/zVAD stimulated mouse BV-2 cells preincubated with LPS for 11 hrs followed by compound addition for 1 hr and exposed to zVAD-fmk for another 24 hrs in presence of Nec-1 by Cellcounting-Lite 2.0 luminescent cell viability assay; format: functional, cell-based; conditions: time 25.0 hrs

Row | Compound | IC50 [1] [nM] | IC50 [2] [nM] | IC50 [3] [nM] | EC50 (BV-2 [4]) [nM] | also measured
1 | CCCc1ccc(Nc2cnc(Nc3cc(C)cc(F)c3)c(C(N)=O)c2)cc1 | 1480 | 12900 | 3310 | > 3000 | –
2 | Cc1cc(F)cc(Nc2ncc(Nc3ccccc3)cc2C(N)=O)c1 | 380 | 760 | 1270 | 370 | –
3 | COc1ccc(Nc2cnc(Nc3cc(C)cc(F)c3)c(C(N)=O)c2)c(C)c1 | – | 9260 | – | > 3000 | –
4 | Cc1cc(C)cc(Nc2cnc(Nc3cc(C)cc(F)c3)c(C(N)=O)c2)c1 | 430 | 930 | 210 | – | –
5 | Cc1cc(F)cc(Nc2ncc(Nc3ccccc3C)cc2C(N)=O)c1 | – | 970 | – | > 3000 | –
6 | CN1C(=O)C(Cc2c[nH]c3ccccc23)NC1=S (stereo unspecified) [NECROSTATIN] | – | – | – | – | Activity (Mus musculus [5]): Active; Activity (Mus musculus [6]): Active; Activity (Mus musculus [7]): Active; Activity (Mus musculus [8]): Active; Activity (BV-2 [9]): inactive; Activity (BV-2 [10]): Active; Activity (BV-2 [11]): Active; Activity (BV-2 [12]): Active; Activity (BV-2 [13]): Active; Activity (BV-2 [14]): Active; Activity (BV-2 [15]): Active; Activity (BV-2 [16]): inactive; Activity (BV-2 [17]): Active; Activity (BV-2 [18]): 100%; Activity (BV-2 [19]): 100%; Activity (BV-2 [20]): Active; Activity (BV-2 [21]): Active
7 | Cc1cc(F)cc(Nc2ncc(Nc3cccc(C#N)c3)cc2C(N)=O)c1 | 1210 | 530 | 2240 | > 3000 | –
8 | C[C@@H](Oc1cc(-c2cnn(C3CCNCC3)c2)cnc1N)c1c(Cl)ccc(F)c1Cl [CRIZOTINIB] | – | – | – | – | Activity (BV-2 [22]): Non-toxic
9 | Cc1cc(C)c(C(N)=O)c(Nc2ccc(Cl)cc2)n1 | – | – | – | – | Inhibition activity call [23]: Active; Activity (BV-2 [24]): Active
10 | COc1ccc(Nc2cnc(Nc3cc(C)cc(F)c3)c(C(N)=O)c2)c(F)c1 | 960 | 3160 | 1460 | 1540 | –
11 | Cc1cc(F)cc(Nc2ncc(Nc3ccccc3Cl)cc2C(N)=O)c1 | 1300 | 760 | 490 | > 3000 | –
12 | Cc1cc(F)cc(Nc2ncccc2C(N)=O)c1 | 240 | 660 | 610 | 480 | –
13 | O=C(NCCc1ccccc1)C1CCN(C(=O)c2ccccc2F)CC1 | – | – | – | – | Inhibition activity call [23]: Active; Activity (BV-2 [24]): Active
14 | Cc1cc(F)cc(Nc2ncc(Nc3ccc(F)cc3F)cc2C(N)=O)c1 | 290 | 1920 | 780 | 150 | –
15 | CN(C(=O)c1cccn(Cc2cccc(F)c2)c1=O)c1ccccc1 | – | – | – | – | Inhibition activity call [23]: Active; Activity (BV-2 [24]): Active
16 | Cc1cc(F)cc(Nc2ncc(Nc3ccc(C#N)cc3)cc2C(N)=O)c1 | 350 | 440 | 3020 | 240 | –
17 | COc1ccc(Nc2cnc(Nc3cc(C)cc(F)c3)c(C(N)=O)c2)cc1 | 300 | 1810 | 1550 | 140 | –
18 | Cc1cc(F)cc(Nc2ncc(Nc3ccc(C)c(C)c3)cc2C(N)=O)c1 | 1570 | 1380 | 1050 | > 3000 | –
19 | Cc1cc(F)cc(Nc2ncc(Nc3ccc4c(c3)CCCC4)cc2C(N)=O)c1 | 690 | 2260 | – | 200 | –
20 | Nc1cc(-c2ccc(Br)cc2)nn1Cc1ccccc1 | – | – | – | – | Inhibition activity call [23]: Active; Activity (BV-2 [24]): Active
21 | Cc1cc(Nc2ncc(Cl)c(Nc3ccccc3S(=O)(=O)C(C)C)n2)c(OC(C)C)cc1C1CCNCC1 [CERITINIB] | – | – | – | – | Activity (BV-2 [22]): Toxic; Activity (BV-2 [24]): inactive
22 | Cc1cc(F)cc(Nc2ncc(Nc3ccc(C(C)(C)C)cc3)cc2C(N)=O)c1 | 500 | – | 830 | 440 | –
23 | Cc1c(Cc2ccccc2)sc(NC(=O)c2ccccc2)c1C(N)=O | – | – | – | – | Inhibition activity call [23]: Active; Activity (BV-2 [24]): Active
24 | Cc1cc(F)cc(Nc2ncc(Nc3ccc(-c4ccco4)cc3)cc2C(N)=O)c1 | 360 | 650 | 1450 | 120 | –
25 | Cc1cc(F)cc(Nc2ncc(Nc3ccc(C(F)(F)F)cc3)cc2C(N)=O)c1 | 420 | 1420 | 3780 | 210 | –
26 | Nc1ccc(-c2cnc(N)c(-c3ccc(Cl)cc3)c2)cn1 | – | – | – | – | Activity (BV-2 [25]): Active; Activity Similar To Nec-1; Activity (BV-2 [26]): inactive; Activity (BV-2 [9]): inactive
27 | Cc1cc(F)cc(Nc2ncc(Nc3ccc(Oc4ccccc4)cc3)cc2C(N)=O)c1 | 870 | 4290 | 3790 | 2660 | –
28 | O=C1c2cccc3cccc(c23)N1Cc1ccc(F)cc1 | – | – | – | – | Inhibition activity call [23]: Active; Activity (BV-2 [24]): Active
29 | C=Cc1ccc(Nc2cnc(Nc3cc(C)cc(F)c3)c(C(N)=O)c2)cc1 | 480 | 350 | – | 140 | –
30 | Cc1cc(F)cc(Nc2ncc(Nc3ccc4c(c3)OCO4)cc2C(N)=O)c1 | 660 | 2230 | – | 160 | –
